# Measured values: patent publication US7405299B2, “Compounds as pharmaceutical agents” (Eli Lilly and Company, priority 2003, dated 2008)
row,SMILES,melting point [°C]
1,"c1ccc(-c2nn3c(c2-c2cccc4nsnc24)CCC3)nc1 [Example 4, 4-[2-(Pyridin-2-yl)-5,6-dihydro-4H-pyrrolo[1,2-b]pyrazol-3-yl]-benzo [2,1,3]thiadiazole]",140 to 142
2,"c1ccc(-c2nn3c(c2-c2ccc4nsnc4c2)CCC3)nc1 [Example 5, 5-[2-(Pyridin-2-yl)-5,6-dihydro-4H-pyrrolo[1,2-b]pyrazol-3-yl]benzo[2,1,3]thiadiazole]",184 to 186
3,"c1ccc(-c2nn3c(c2-c2nc4ncccc4[nH]2)CCC3)nc1 [Example 8, 2-[2-(Pyridin-2-yl)-5,6-dihydro-4H-pyrrolo[1,2-b]pyrazol-3-yl]-1H-imidazo[4,5-b]pyridine]",170 to 172
4,"c1ccc(-c2nn3c(c2-c2nc4cnccc4[nH]2)CCC3)nc1 [Example 9, 2-[2-(Pyridin-2-yl)-5,6-dihydro-4H-pyrrolo[1,2-b]pyrazol-3-yl]-1H-imidazo[4,5-c]pyridine]",201 to 203
5,"c1ccc(-c2nn3c(c2-c2nc4ccccc4[nH]2)CCC3)nc1 [Example 10, 2-[2-(Pyridin-2-yl)-5,6-dihydro-4H-pyrrolo[1,2-b]pyrazol-3-yl]-1H-benzoimidazole]",172 to 175
6,"c1ccc(-c2nn3c(c2-c2nc4ncccc4o2)CCC3)nc1 [Example 11, 2-[2-(Pyridin-2-yl)-5,6-dihydro-4H-pyrrolo[1,2-b]pyrazol-3-yl]-oxazolo[4,5-b]pyridine]",182 to 184
7,"c1ccc(-c2nn3c(c2-c2cncc4cccnc24)CCC3)nc1 [Example 80a, 8-(2-Pyridin-2-yl-5,6-dihydro-4H-pyrrolo[1,2-b]pyrazol-3-yl)-[1,6]naphthyridine]",180 to 184
